Experimental data as given in patent publication US20240132431A1, “METHOD FOR ALKYLATING ACIDIC FUNCTIONAL GROUP” (Chugai Seiyaku Kabushiki Kaisha, priority 2021, published 2024).

Target: T1, Bcl-2 protein (Recombinant Human Bcl-2 Protein) (Homo sapiens, UniProt P10415)
T1 construct: purchased Novus NBP2-34889
Test: Binding evaluation of mixture library compounds to Bcl-2 using AS-MS (affinity selection mass spectrometry)
Conditions: AS-MS on the mixture of 1200 library compounds, ASMS Ratio(%)=(A−C)/B×100; for ASMS ratio (%) n = 1: replicate n = 1; for ASMS ratio (%) n = 2: replicate n = 2
Procedure, shortened: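 Affinity selection MS: Bcl-2 20 μM + 1200-cpd mixture, […]/cpd, Tris pH 7.4 buffer w/ Tween-20, DTT; 1 h 23° C dark; P-2 spin SEC; MeCN/MeOH extraction; RP LC/MS. ASMS Ratio(%) = (A−C)/B×100.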

T1 sequence (P10415 whole entry): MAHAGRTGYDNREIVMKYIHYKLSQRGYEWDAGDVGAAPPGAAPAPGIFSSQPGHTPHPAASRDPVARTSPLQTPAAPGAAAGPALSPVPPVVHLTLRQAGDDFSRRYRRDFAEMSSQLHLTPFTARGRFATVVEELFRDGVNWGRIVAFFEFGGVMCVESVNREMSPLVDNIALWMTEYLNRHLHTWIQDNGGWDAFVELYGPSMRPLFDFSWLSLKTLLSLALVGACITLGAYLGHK

SMILES	ASMS ratio (%) n = 1 [%]	ASMS ratio (%) n = 2 [%]
CCOc1cncc(-c2cc(C(=O)N3CCN(c4ccc(C(=O)Nc5ccc(OC)cc5)nn4)CC3)cc(C(C)(C)C)c2)c1 [B1O016-01, 6-[4-[3-tert-Butyl-5-(5-ethoxypyridin-3-yl)benzoyl]piperazin-1-yl]-N-(4-methoxyphenyl)pyridazine-3-carboxamide]	6.6	0.7
CCOc1cccc(-c2cc(C(=O)N3CCN(c4ccc(C(=O)Nc5ccc(OC)cc5)nn4)CC3)cc(C(F)(F)F)c2)c1 [B1O017-01, 6-[4-[3-(3-Ethoxyphenyl)-5-(trifluoromethyl)benzoyl]piperazin-1-yl]-N-(4-methoxyphenyl)pyridazine-3-carboxamide]	2.5	0.0
CCOc1cncc(-c2cc(C(=O)N3CCN(c4ccc(C(=O)Nc5ccc(OC)cc5)nn4)CC3)cc(C(F)(F)F)c2)c1 [B1O018-01, 6-[4-[3-(5-Ethoxypyridin-3-yl)-5-(trifluoromethyl)benzoyl]piperazin-1-yl]-N-(4-methoxyphenyl)pyridazine-3-carboxamide]	1.0	3.2
CCOc1cccc(C#Cc2cc(C(=O)N3CCN(c4ccc(C(=O)Nc5ccc(OC)cc5)nn4)CC3)cc(C(F)(F)F)c2)c1 [B1O019-01, 6-[4-[3-[2-(3-Ethoxyphenyl)ethynyl]-5-(trifluoromethyl)benzoyl]piperazin-1-yl]-N-(4-methoxyphenyl)pyridazine-3-carboxamide]	0.6	0.2
CCOc1cncc(C#Cc2cc(C(=O)N3CCN(c4ccc(C(=O)Nc5ccc(OC)cc5)nn4)CC3)cc(C(F)(F)F)c2)c1 [B1O020-01, 6-[4-[3-[2-(5-Ethoxypyridin-3-yl)ethynyl]-5-(trifluoromethyl)benzoyl]piperazin-1-yl]-N-(4-methoxyphenyl)pyridazine-3-carboxamide]	8.6	−0.5
CCOc1cccc(-c2cnn(-c3cc(C(=O)N4CCN(c5ccc(C(=O)Nc6ccc(OC)cc6)nn5)CC4)cc(C(F)(F)F)c3)c2)c1 [B1O021-01, 6-[4-[3-[4-(3-Ethoxyphenyl)pyrazol-1-yl]-5-(trifluoromethyl)benzoyl]piperazin-1-yl]-N-(4-methoxyphenyl)pyridazine-3-carboxamide]	2.9	−1.2
CCOc1cncc(-c2cnn(-c3cc(C(=O)N4CCN(c5ccc(C(=O)Nc6ccc(OC)cc6)nn5)CC4)cc(C(F)(F)F)c3)c2)c1 [B1O022-01, 6-[4-[3-[4-(5-Ethoxypyridin-3-yl)pyrazol-1-yl]-5-(trifluoromethyl)benzoyl]piperazin-1-yl]-N-(4-methoxyphenyl)pyridazine-3-carboxamide]	5.6	−1.2
CCOc1cccc(-c2csc(C(=O)N3CCN(c4ccc(C(=O)Nc5ccc(OC)cc5)cc4)CC3)c2)c1 [B1O023-01, 4-[4-[4-(3-Ethoxyphenyl)thiophene-2-carbonyl]piperazin-1-yl]-N-(4-methoxyphenyl)benzamide]	12.4	−0.3
CCOc1cncc(-c2csc(C(=O)N3CCN(c4ccc(C(=O)Nc5ccc(OC)cc5)cc4)CC3)c2)c1 [B1O024-01, 4-[4-[4-(5-Ethoxypyridin-3-yl)thiophene-2-carbonyl]piperazin-1-yl]-N-(4-methoxyphenyl)benzamide]	3.6	2.3
CCOc1cccc(-c2ccc(C(=O)N3CCN(c4ccc(C(=O)Nc5ccc(OC)cc5)cc4)CC3)cc2C)c1 [B1O025-01, 4-[4-[4-(3-Ethoxyphenyl)-3-methylbenzoyl]piperazin-1-yl]-N-(4-methoxyphenyl)benzamide]	−0.4	−4.5
CCOc1cncc(-c2ccc(C(=O)N3CCN(c4ccc(C(=O)Nc5ccc(OC)cc5)cc4)CC3)cc2C)c1 [B1O026-01, 4-[4-[4-(5-Ethoxypyridin-3-yl)-3-methylbenzoyl]piperazin-1-yl]-N-(4-methoxyphenyl)benzamide]	1.7	−1.5
